From patent US9839640B2, “Methods of treating eye diseases associated with inflammation and vascular proliferation” (OccuRx Pty Ltd, priority 2010, dated 2017)

What was measured:
Assay type in all cases: in vivo, rat
leukocytes in the retina [1] = assay: Leukostasis (short term study), rhodamine-coupled Concanavalin A staining of retina
Description: (§1) Ninety, six-week old female, heterozygous (mRen-2) 27 rats (St. Vincent's Hospital Animal House, Melbourne, Australia) were assigned to receive either 55 mg/kg of streptozotocin (STZ) (Sigma, St. Louis, USA) diluted in 0.1 M citrate buffer, pH 4.5 or citrate buffer alone (non-diabetic control) by tail vein injection following an overnight fast. In short term study, rats were randomly assigned to receive (n=10/group) treatment with either FT011 (100 mg/kg bid gavage) or vehicle for 8 weeks. Non-diabetic animals (n=10) served as controls. In the long term study, at 16 weeks of STZ diabetes rats were randomly assigned to either treatment (n=15/group) with, FT011 (50 mg/kg/day BID), FT011 (100 mg/kg BID) or no treatment for a further 16 weeks. Non-diabetic animals (n=15) served as controls. Each week, rats were weighed and their blood glucose levels were measured (Accu-check Advantage II Blood Glucose Monitor, Roche Diagnostics, USA) and only STZ-treated animals with blood glucose >15 mmol/L were considered diabetic. Every 4 weeks, SBP was determined in preheated conscious rats via tail-cuff plethysmography using a non-invasive blood pressure (NIBP) controller and Powerlab (AD instruments, NSW, Australia). Haemoglobin A1c (HbA1c) was measured by HPLC at the end of the study in the Department of Pathology, St Vincent's Hospital. […]

[2] = Animal characteristics (8 weeks study), STZ diabetic (mRen-2) 27 rats treated with FT011; details: FT011 200 mg/kg/day (100 mg/kg bid gavage), P < 0.05 versus untreated diabetes
Description: as §1

acellular capillaries = assay: Trypsin digest, acellular capillaries in PAS stained retina (long term study 32 weeks); details: diabetic rats, 100 mg/kg/day FT011, long term study
Description: as §1

[3] = Animal characteristics (32 weeks study), STZ diabetic (mRen-2) 27 rats treated with FT011
Description: as §1

ICAM-1 mRNA [4] = assay: Real time PCR of retinal ICAM-1 mRNA (short term study); details: FIG. 3; diabetic rats treated with FT011, short term 8 week study; normalised to 18S rRNA
Description: as §1

leukocytes in the retina [5] = assay: Leukostasis, rhodamine-coupled Concanavalin A staining of retina (FT061 study)
Description: (§2) Sixty, six-week old female, heterozygous (mRen-2) 27 rats (St. Vincent's Hospital Animal House, Melbourne, Australia) were assigned to receive either 55 mg/kg of streptozotocin (STZ) (Sigma, St. Louis, USA) diluted in 0.1 M citrate buffer, pH 4.5 or citrate buffer alone (non-diabetic control) by tail vein injection following an overnight fast. Rats were randomly assigned to receive (n=15/group) treatment with either FT061 (100 mg/kg/day gavage) or vehicle for 8 weeks. Non-diabetic animals (n=15) served as controls. Each week, rats were weighed and their blood glucose levels were measured (Accu-check Advantage II Blood Glucose Monitor, Roche Diagnostics, USA) and only STZ-treated animals with blood glucose >15 mmol/L were considered diabetic. Every 4 weeks, SBP was determined in preheated conscious rats via tail-cuff plethysmography using a non-invasive blood pressure (NIBP) controller and Powerlab (AD instruments, NSW, Australia). Diabetic rats received a daily injection of insulin (2-4 units intraperitoneally; Humulin NPH, Eli Lilly and Co., Indianapolis, Ind.) to reduce mortality and to promote weight gain.
At the end of the study, rats were anaesthetized with Lethobarb (60 mg/kg) and the chest cavity was opened. […] The total number of leukocytes was counted per retina. […]

ICAM-1 mRNA [6] = assay: Real time PCR of retinal ICAM-1 mRNA (FT061 study); details: FIG. 8; diabetic rats, FT061 100 mg/kg/day 8 weeks, compared to controls and untreated diabetes
Description: as §2, with “Diabetic rats received a daily injection of insulin (2-4 units intraperitoneally; Humulin NPH, Eli Lilly and Co., Indianapolis, Ind.) to reduce mortality and to promote weight gain.” left out
(§3) At the end of the study, rats were anaesthetized with lethobarb (60 mg/kg), eyes were enucleated and retinae dissected and placed in RNAlater (#R0901, Sigma-Aldrich). […] RNA concentration was determined on a Nanodrop 3.1.2, after which 1 μg of RNA was DNase treated (DNA-free kit, Ambion) and reverse transcribed (First Strand cDNA Synthesis Kit for RT-PCR, Roche). […]

VEGF mRNA = assay: Real time PCR of retinal VEGF mRNA (FT061 study); details: FIG. 9; diabetic rats, FT061 100 mg/kg/day 8 weeks, compared to controls and untreated diabetes
Description: as §2, with “Diabetic rats received a daily injection of insulin (2-4 units intraperitoneally; Humulin NPH, Eli Lilly and Co., Indianapolis, Ind.) to reduce mortality and to promote weight gain.” left out
as §3

SMILES | total number of leukocytes in the retina (leukocytes in the retina [1]; FIG. 1, diabetic rats, FT011 100 mg/kg bid gavage 8 weeks, compared to untreated diabetic rats) | leukostasis (representative micrographs) (leukocytes in the retina [1]; FIG. 2, diabetic rats treated with FT011, short term study) | HbA1C [2] [%] | number of acellular capillaries per field (acellular capillaries; FIG. 4, compared to untreated diabetic rats) | acellular capillaries (pericyte ghost), representative micrographs (acellular capillaries; FIG. 5) | HbA1C ([3]; FT011 100 mk/kg/day, P < 0.05 versus control) [%] | HbA1C ([3]; FT011 200 mk/kg/day, P < 0.05 versus untreated diabetes) [%] | retinal ICAM-1 mRNA levels (ICAM-1 mRNA [4]) | total number of leukocytes in the retina (leukocytes in the retina [5]; FIG. 6, diabetic rats, FT061 100 mg/kg/day gavage 8 weeks, compared to untreated diabetic rats) | leukostasis (representative photomicrographs) (leukocytes in the retina [5]; FIG. 7, diabetic rats treated with FT061) | retinal ICAM-1 mRNA levels (ICAM-1 mRNA [6]) | retinal VEGF mRNA levels (VEGF mRNA)
C#CCOc1ccc(/C=C/C(=O)Nc2ccccc2C(=O)O)cc1OC [FT011] | significantly less | significantly reduced leukostasis | 8.9 ± 0.50 | less acellular capillaries | pericyte ghosts were not apparent | 7.65 ± 0.25 | 6.58 ± 0.37 | reduction in ICAM-1 mRNA levels |  |  |  | 
O=C(/C=C/c1ccc(OC(F)F)c(OC(F)F)c1)Nc1ccccc1C(=O)O [FT061] |  |  |  |  |  |  |  |  | significantly less | significantly reduced leukostasis | reduction in ICAM-1 mRNA levels | reduction in VEGF mRNA levels
